Test results taken from ChEMBL document CHEMBL4649995, “Discovery of a PCAF Bromodomain Chemical Probe” (Angew Chem Int Ed Engl, 2017).

How the values were obtained:
Details in all cases: Compound concentration 10.0 uM, Protein concentration 2.0 uM
[1] = molecular target: Histone-lysine N-methyltransferase ASH1L (Homo sapiens) (UniProt Q9NR48)
[2] = molecular target: ATPase family AAA domain-containing protein 2 (Homo sapiens) (UniProt Q6PL18)
[3] = molecular target: ATPase family AAA domain-containing protein 2B (Homo sapiens) (UniProt Q9ULI0)
[4] = molecular target: Bromodomain adjacent to zinc finger domain protein 1A (Homo sapiens) (UniProt Q9NRL2)
[5] = molecular target: Tyrosine-protein kinase BAZ1B (Homo sapiens) (UniProt Q9UIG0)
[6] = molecular target: Bromodomain adjacent to zinc finger domain protein 2A (Homo sapiens) (UniProt Q9UIF9)
[7] = molecular target: Bromodomain adjacent to zinc finger domain protein 2B (Homo sapiens) (UniProt Q9UIF8)
[8] = molecular target: Nucleosome-remodeling factor subunit BPTF (Homo sapiens) (UniProt Q12830)
[9] = molecular target: Bromodomain-containing protein 1 (Homo sapiens) (UniProt O95696)
[10] = molecular target: Bromodomain-containing protein 2 (Homo sapiens) (UniProt P25440)
[11] = molecular target: Bromodomain-containing protein 2 (Homo sapiens) (UniProt P25440); remark: listed apart in the source
[12] = molecular target: Bromodomain-containing protein 3 (Homo sapiens) (UniProt Q15059)
[13] = molecular target: Bromodomain-containing protein 3 (Homo sapiens) (UniProt Q15059); remark: listed apart in the source
[14] = molecular target: Bromodomain-containing protein 4 (Homo sapiens) (UniProt O60885)
[15] = molecular target: Bromodomain-containing protein 7 (Homo sapiens) (UniProt Q9NPI1)
[16] = molecular target: Bromodomain-containing protein 9 (Homo sapiens) (UniProt Q9H8M2)
[17] = molecular target: Bromodomain testis-specific protein (Homo sapiens) (UniProt Q58F21)
[18] = molecular target: Bromodomain testis-specific protein (Homo sapiens) (UniProt Q58F21); remark: listed apart in the source
[19] = molecular target: Peregrin (Homo sapiens) (UniProt P55201)
[20] = molecular target: Bromodomain and PHD finger-containing protein 3 (Homo sapiens) (UniProt Q9ULD4)
[21] = molecular target: Bromodomain and WD repeat-containing protein 1 (Homo sapiens) (UniProt Q9NSI6)
[22] = molecular target: Bromodomain and WD repeat-containing protein 3 (Homo sapiens) (UniProt Q6RI45)
[23] = molecular target: Chromatin remodeling regulator CECR2 (Homo sapiens) (UniProt Q9BXF3)
[24] = molecular target: CREB-binding protein (Homo sapiens) (UniProt Q92793)
[25] = molecular target: Histone acetyltransferase p300 (Homo sapiens) (UniProt Q09472)
[26] = molecular target: Histone acetyltransferase KAT2A (Homo sapiens) (UniProt Q92830)
[27] = molecular target: Histone-lysine N-methyltransferase 2A (Homo sapiens) (UniProt Q03164)
[28] = molecular target: Protein polybromo-1 (Homo sapiens) (UniProt Q86U86)
[29] = molecular target: Protein polybromo-1 (Homo sapiens) (UniProt Q86U86); remark: listed apart in the source
[30] = molecular target: Protein polybromo-1 (Homo sapiens) (UniProt Q86U86); remark: listed apart in the source
[31] = molecular target: Protein polybromo-1 (Homo sapiens) (UniProt Q86U86); remark: listed apart in the source
[32] = molecular target: Protein polybromo-1 (Homo sapiens) (UniProt Q86U86); remark: listed apart in the source
[33] = molecular target: Protein polybromo-1 (Homo sapiens) (UniProt Q86U86); remark: listed apart in the source
[34] = molecular target: PH-interacting protein (Homo sapiens) (UniProt Q8WWQ0)
[35] = molecular target: SWI/SNF-related matrix-associated actin-dependent regulator of chromatin subfamily A member 2 (Homo sapiens) (UniProt P51531)
[36] = molecular target: SWI/SNF-related matrix-associated actin-dependent regulator of chromatin subfamily A member 4 (Homo sapiens) (UniProt P51532)
[37] = molecular target: Nuclear body protein SP140 (Homo sapiens) (UniProt Q13342)
[38] = molecular target: Nuclear body protein SP140-like protein (Homo sapiens) (UniProt Q9H930)
[39] = molecular target: Transcription initiation factor TFIID subunit 1 (Homo sapiens) (UniProt P21675)
[40] = molecular target: Transcription initiation factor TFIID subunit 1 (Homo sapiens) (UniProt P21675); remark: listed apart in the source
[41] = molecular target: Transcription initiation factor TFIID subunit 1-like (Homo sapiens) (UniProt Q8IZX4)
[42] = molecular target: Transcription initiation factor TFIID subunit 1-like (Homo sapiens) (UniProt Q8IZX4); remark: listed apart in the source
[43] = molecular target: Transcription intermediary factor 1-alpha (Homo sapiens) (UniProt O15164)
[44] = molecular target: Transcription intermediary factor 1-beta (Homo sapiens) (UniProt Q13263)
[45] = molecular target: Bromodomain-containing protein 4 (Homo sapiens) (UniProt O60885); remark: listed apart in the source
[46] = molecular target: Peregrin (Homo sapiens) (UniProt P55201); remark: listed apart in the source
[47] = molecular target: Transcription intermediary factor 1-alpha (Homo sapiens) (UniProt O15164); remark: listed apart in the source

Sequence of Protein polybromo-1 (Homo sapiens) (Q86U86 whole entry): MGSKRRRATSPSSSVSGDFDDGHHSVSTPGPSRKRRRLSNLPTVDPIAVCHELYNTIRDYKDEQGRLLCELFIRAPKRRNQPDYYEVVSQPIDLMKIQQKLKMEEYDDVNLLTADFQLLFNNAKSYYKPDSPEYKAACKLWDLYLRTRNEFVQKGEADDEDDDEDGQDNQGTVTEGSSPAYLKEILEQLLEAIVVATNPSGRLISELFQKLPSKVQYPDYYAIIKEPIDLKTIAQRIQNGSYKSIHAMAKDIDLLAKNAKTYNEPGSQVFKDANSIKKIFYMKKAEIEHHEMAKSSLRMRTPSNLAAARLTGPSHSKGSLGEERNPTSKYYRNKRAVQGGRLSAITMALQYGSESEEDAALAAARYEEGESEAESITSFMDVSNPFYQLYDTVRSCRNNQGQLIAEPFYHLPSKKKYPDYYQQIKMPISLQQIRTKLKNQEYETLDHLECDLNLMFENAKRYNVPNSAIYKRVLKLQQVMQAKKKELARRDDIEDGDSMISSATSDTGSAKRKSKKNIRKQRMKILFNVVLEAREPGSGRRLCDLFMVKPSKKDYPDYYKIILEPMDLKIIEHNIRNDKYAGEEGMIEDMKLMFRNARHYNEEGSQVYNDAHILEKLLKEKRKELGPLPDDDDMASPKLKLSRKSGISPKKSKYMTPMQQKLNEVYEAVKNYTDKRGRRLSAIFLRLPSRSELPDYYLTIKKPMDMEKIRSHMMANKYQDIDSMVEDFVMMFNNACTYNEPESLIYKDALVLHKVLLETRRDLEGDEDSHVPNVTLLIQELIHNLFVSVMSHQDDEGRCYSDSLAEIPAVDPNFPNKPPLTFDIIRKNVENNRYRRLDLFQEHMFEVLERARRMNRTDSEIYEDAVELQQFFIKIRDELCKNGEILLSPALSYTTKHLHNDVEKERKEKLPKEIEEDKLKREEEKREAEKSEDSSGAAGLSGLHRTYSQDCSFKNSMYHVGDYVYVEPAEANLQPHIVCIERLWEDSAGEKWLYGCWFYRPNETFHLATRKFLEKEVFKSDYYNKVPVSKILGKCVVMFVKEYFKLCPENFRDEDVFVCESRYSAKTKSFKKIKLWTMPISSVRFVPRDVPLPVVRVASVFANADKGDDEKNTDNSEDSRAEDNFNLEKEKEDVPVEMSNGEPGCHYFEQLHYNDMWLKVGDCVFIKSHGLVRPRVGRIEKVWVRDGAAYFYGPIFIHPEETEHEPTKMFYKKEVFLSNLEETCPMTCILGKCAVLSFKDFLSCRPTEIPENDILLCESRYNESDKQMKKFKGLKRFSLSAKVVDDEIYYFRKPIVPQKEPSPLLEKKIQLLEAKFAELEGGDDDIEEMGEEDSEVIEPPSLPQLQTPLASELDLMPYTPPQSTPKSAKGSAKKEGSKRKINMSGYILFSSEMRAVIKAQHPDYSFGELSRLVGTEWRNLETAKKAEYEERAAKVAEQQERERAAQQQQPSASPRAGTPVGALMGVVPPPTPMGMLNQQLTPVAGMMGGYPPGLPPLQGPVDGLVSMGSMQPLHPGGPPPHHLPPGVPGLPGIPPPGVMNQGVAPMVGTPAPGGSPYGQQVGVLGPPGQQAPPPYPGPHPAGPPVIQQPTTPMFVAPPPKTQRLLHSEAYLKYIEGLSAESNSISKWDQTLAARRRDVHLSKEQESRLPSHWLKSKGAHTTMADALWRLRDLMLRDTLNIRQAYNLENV
Sequence of Transcription initiation factor TFIID subunit 1 (Homo sapiens) (P21675 whole entry): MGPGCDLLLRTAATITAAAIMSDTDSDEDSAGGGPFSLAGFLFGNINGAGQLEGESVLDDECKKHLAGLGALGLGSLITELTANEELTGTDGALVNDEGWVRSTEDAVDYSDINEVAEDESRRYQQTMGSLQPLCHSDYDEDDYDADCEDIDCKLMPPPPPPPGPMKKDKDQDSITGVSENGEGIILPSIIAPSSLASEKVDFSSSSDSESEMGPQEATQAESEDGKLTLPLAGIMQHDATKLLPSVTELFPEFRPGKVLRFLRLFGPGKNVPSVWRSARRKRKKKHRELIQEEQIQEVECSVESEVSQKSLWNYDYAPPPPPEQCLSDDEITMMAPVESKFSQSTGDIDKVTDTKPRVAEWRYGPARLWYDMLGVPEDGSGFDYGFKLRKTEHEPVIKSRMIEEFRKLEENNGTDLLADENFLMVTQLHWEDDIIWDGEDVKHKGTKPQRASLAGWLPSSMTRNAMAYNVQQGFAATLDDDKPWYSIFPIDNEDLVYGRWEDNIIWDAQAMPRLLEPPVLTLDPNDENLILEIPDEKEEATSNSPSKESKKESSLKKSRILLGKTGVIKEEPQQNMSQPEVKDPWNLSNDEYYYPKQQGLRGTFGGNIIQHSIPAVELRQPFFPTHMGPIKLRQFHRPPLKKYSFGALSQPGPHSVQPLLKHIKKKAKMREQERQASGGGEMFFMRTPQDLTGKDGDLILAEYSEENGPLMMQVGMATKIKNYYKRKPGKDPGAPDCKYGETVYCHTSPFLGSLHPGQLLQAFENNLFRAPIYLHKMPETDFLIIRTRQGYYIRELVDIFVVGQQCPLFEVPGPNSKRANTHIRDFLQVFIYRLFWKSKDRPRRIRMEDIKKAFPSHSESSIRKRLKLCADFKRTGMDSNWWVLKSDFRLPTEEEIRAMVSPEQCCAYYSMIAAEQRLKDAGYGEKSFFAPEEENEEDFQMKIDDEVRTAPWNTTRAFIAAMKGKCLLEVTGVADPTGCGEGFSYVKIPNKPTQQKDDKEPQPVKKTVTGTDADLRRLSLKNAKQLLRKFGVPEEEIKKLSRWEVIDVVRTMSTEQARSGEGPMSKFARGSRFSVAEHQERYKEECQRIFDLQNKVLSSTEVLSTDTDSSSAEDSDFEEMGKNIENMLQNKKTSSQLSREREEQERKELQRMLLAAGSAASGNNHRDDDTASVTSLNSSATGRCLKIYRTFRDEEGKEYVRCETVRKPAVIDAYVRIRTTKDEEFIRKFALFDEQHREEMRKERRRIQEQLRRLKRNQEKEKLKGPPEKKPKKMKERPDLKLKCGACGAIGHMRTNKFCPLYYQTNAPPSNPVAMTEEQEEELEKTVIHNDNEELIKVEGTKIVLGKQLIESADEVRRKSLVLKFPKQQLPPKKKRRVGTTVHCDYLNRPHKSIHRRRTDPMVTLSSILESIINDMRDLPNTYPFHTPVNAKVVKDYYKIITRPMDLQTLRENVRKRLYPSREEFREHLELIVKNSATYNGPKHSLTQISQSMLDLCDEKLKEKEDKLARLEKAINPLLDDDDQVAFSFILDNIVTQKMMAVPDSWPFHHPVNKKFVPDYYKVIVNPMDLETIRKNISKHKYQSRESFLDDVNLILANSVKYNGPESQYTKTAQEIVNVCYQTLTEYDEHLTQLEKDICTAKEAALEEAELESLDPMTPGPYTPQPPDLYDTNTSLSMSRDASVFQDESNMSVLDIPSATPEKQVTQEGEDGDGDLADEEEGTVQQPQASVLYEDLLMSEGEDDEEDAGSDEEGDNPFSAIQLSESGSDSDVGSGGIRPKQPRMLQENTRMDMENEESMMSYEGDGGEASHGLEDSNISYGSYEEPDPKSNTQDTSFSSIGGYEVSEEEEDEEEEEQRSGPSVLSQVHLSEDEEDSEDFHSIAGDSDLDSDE
Sequence of Bromodomain-containing protein 2 (Homo sapiens) (P25440 whole entry, looked up): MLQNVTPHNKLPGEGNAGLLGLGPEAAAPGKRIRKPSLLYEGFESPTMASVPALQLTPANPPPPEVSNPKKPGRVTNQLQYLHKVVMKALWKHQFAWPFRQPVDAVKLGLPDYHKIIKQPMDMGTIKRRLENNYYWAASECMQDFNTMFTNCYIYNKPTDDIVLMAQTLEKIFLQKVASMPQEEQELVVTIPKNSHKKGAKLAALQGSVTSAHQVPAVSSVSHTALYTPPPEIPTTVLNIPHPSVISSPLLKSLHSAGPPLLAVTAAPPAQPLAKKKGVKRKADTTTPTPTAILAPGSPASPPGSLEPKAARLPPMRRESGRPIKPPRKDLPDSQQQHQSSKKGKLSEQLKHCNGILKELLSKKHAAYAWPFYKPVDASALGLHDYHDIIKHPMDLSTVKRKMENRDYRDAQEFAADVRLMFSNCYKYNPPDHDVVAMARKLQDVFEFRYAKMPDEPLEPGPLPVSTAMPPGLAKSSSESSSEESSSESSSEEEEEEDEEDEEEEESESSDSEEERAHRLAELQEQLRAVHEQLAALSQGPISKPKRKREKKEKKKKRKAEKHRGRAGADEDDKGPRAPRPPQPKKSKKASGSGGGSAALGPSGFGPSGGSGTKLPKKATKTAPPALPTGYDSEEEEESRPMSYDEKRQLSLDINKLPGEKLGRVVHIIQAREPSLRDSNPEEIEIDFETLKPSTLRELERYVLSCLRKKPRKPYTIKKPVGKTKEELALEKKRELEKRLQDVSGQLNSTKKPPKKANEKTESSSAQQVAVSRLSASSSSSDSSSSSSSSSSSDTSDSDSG
Sequence of Bromodomain-containing protein 3 (Homo sapiens) (Q15059 2-726 limits assumed): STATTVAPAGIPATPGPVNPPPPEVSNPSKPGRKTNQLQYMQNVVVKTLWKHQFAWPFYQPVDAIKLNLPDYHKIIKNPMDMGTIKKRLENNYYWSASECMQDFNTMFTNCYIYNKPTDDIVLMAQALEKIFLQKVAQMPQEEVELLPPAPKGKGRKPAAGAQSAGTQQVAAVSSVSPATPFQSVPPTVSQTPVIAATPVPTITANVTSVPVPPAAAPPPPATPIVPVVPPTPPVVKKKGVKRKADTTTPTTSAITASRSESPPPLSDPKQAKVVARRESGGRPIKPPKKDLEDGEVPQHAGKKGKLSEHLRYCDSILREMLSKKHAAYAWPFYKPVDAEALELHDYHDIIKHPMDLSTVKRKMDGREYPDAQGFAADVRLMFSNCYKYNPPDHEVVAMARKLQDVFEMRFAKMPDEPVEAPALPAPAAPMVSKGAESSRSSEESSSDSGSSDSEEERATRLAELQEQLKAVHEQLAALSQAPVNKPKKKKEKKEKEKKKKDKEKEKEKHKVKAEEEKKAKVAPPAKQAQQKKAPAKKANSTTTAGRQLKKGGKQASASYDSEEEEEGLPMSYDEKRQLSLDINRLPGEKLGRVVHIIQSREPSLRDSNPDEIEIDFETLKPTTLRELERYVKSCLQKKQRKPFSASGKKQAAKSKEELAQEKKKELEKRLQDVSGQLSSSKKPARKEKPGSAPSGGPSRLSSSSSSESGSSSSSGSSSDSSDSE

Cc1nnc2c3ccccc3c(N[C@@H](C)[C@H](c3ccccc3)N(C)C)nn12 gave a ΔTm [1] of 0.62 °C, a ΔTm [2] of 1.18 °C and a ΔTm [3] of 0.61 °C. The ΔTm [4] was 1.31 °C, the ΔTm [5] was 0.72 °C and the ΔTm [6] was 0.1 °C. The ΔTm [7] was 0.67 °C, the ΔTm [8] was 0.08 °C and the ΔTm [9] was -0.26 °C. For the same compound, the ΔTm [10] was -0.06 °C, the ΔTm [11] was 0.23 °C and the ΔTm [12] was 0.13 °C. The ΔTm [13] was 0.26 °C, the ΔTm [14] was 0.1 °C and the ΔTm [15] was -0.07 °C. The ΔTm [16] was 0.56 °C, the ΔTm [17] was -2.19 °C and the ΔTm [18] was 0.72 °C. For the same compound, the ΔTm [19] was 1.03 °C, the ΔTm [20] was 0.78 °C and the ΔTm [21] was 2 °C. The ΔTm [22] was 2.16 °C, the ΔTm [23] was 0.63 °C and the ΔTm [24] was 0.95 °C. For the same compound, the ΔTm [25] was 0.86 °C, the ΔTm [26] was 3.75 °C and the ΔTm [27] was 1.14 °C. The ΔTm [28] was 0.13 °C, the ΔTm [29] was 0.43 °C and the ΔTm [30] was 0.65 °C. The ΔTm [31] was 0.1 °C, the ΔTm [32] was 0.75 °C and the ΔTm [33] was 0.26 °C. The ΔTm [34] was -0.82 °C, the ΔTm [35] was 0.51 °C and the ΔTm [36] was 0.42 °C. For the same compound, the ΔTm [37] was 0.09 °C, the ΔTm [38] was 0.94 °C and the ΔTm [39] was 0.42 °C. For the same compound, the ΔTm [40] was 0.5 °C, the ΔTm [41] was 0.67 °C and the ΔTm [42] was 0.33 °C. It also gave a ΔTm [43] of 0.77 °C, a ΔTm [44] of 0.5 °C and a ΔTm [45] of 0.39 °C. For the same compound, the ΔTm [46] was 1.19 °C and the ΔTm [47] was 0.69 °C.
